This note sets out measurements from patent US8445691B2, “Heterocyclic thiosubstituted alkanol derivatives” (Bayer CropScience AG, priority 2010, dated 2013).

Values joined by “and” are separate entries in the source; they are usually repeats but may differ in a detail not shown here. Equal entries are not always repeated.

Tested on in the first data set: not listed separately
Nature of the data set: logP by reversed-phase HPLC (EEC Directive 79/831 Annex V.A8). Format: physicochemical. The note with it: method [a]: LC-MS, acidic range pH 2.7, 0.1% aqueous formic acid / acetonitrile, linear gradient 10% to 95% acetonitrile, C18 reversed phase. The method, then: The logP values were measured in accordance with EEC Directive 79/831 Annex V.A8 by HPLC (High Performance Liquid Chromatography) using reversed-phase columns (C 18) by the following methods:
[a] The LC-MS determination in the acidic range is effected at pH 2.7 with 0.1% aqueous formic acid and acetonitrile (contains 0.1% formic acid) as eluents; linear gradient from 10% acetonitrile to 95% acetonitrile.
As for `CC(C)(C)C(O)(CSc1ccc(F)cc1F)c1cncs1` (stereo not drawn) [Compound 47], the logP result was “log p 3.26^[a]”. Same read-out and setting: for `CC(C)(C)C(O)(CSCc1ccc(Cl)cc1Cl)c1cncs1` (stereo not drawn) [Compound 10] the value was “logP 4.29^[a]; [M]^+ = 375”; for `CC(C)(C)C(O)(CSc1ccccc1Cl)c1cncs1` (stereo not drawn) [Compound 71], “log p 3.37^[a]”; for `CC(C)(C)C(O)(CSc1cc(Cl)cc(Cl)c1)c1cncs1` (stereo not drawn) [Compound 59], “log p 4.18^[a]”. On the same count and under the same terms, as for `Cc1cccc(SCC(O)(c2cncs2)C(C)(C)C)c1` (stereo not drawn) [Compound 63], the entry is “log p 3.57^[a]”. Still for that read-out and setting: for `CC(C)(C)C(=O)Nc1ccc(SCC(O)(c2cncs2)C(C)(C)C)cc1` (stereo not drawn) [Compound 48] the value was “log p 3.14^[a]”; for `CC(C)C(O)(CSc1nncn1-c1ccccc1)c1cncs1` (stereo not drawn) [Compound 25], “log p 1.76^[a]”; for `COC(=O)c1ccccc1SCC(O)(c1cncs1)C(C)(C)C` (stereo not drawn) [Compound 67], “log p 2.95^[a]”. On to `COC(=O)c1ccc(SCC(O)(c2cncs2)C(C)(C)C)cc1` (stereo not drawn) [Compound 41], for which the logP result is “log p 3.01^[a]”. Still for that read-out and setting: as for `CC(=O)Nc1cccc(SCC(O)(c2cncs2)C(C)(C)C)c1` (stereo not drawn) [Compound 54], the entry is “log p 2.15^[a]”; as for `Cc1ccc(SCC(O)(c2cncs2)C(C)(C)C)cc1` (stereo not drawn) [Compound 12], “logP 3.63^[a]; [M]^+ = 307”. The same measure, in the same setting: for `CC(C)(C)C(O)(CSc1cccc(Cl)c1)c1cncs1` (stereo not drawn) [Compound 72] the value was “log p 3.59^[a]”. Same read-out and setting: for `Cc1ccc(C)c(SCC(O)(c2cncs2)C(C)(C)C)c1` (stereo not drawn) [Compound 70] the value was “log p 3.98^[a]”. In the case of `CC(C)(C)c1ccc(SCC(O)(c2cncs2)C(C)(C)C)cc1` (stereo not drawn) [Compound 19], the logP result is “log p 3.7^[a]”.

For the molecule `CC(C)(C)C(O)(CSc1ccc(Cl)c(Cl)c1)c1cncs1` (stereo not drawn) [Compound 38], the logP entry is “log p 4.05^[a]”. With `CC(C)(C)C(O)(CSc1cc(C(F)(F)F)cc(C(F)(F)F)c1)c1cncs1` (stereo not drawn) [Compound 58], the logP entry is “log p 4.37^[a]”. Still for that read-out and setting: as for `Cc1ccccc1SCC(O)(c1cncs1)C(C)(C)C` (stereo not drawn) [Compound 64], the entry is “log p 3.52^[a]”; as for `CC(C)(C)C(O)(CSc1cccc(Br)c1)c1cncs1` (stereo not drawn) [Compound 20], “log p 3.74^[a]”; as for `CC(=O)c1ccccc1SCC(O)(c1cncs1)C(C)(C)C` (stereo not drawn) [Compound 42], “log p 2.66^[a]”. The same measure, in the same setting: for `CC(C)(C)C(O)(CSc1ccccc1Br)c1cncs1` (stereo not drawn) [Compound 21] the value was “log p 3.5^[a]”; for `CC(C)(C)C(O)(CSc1cccc2ccccc12)c1cncs1` (stereo not drawn) [Compound 36], “log p 3.87^[a]”. On the same count and under the same terms, for `CC(C)(C)C(O)(CSC1CCCCC1)c1cncs1` (stereo not drawn) [Compound 26] the value was “log p 4.17^[a]”; for `CC(=O)c1ccc(SCC(O)(c2cncs2)C(C)(C)C)c(Cl)c1` (stereo not drawn) [Compound 49], “log p 2.91^[a]”. Take `CC(C)(C)C(O)(CSc1cccc(Oc2ccccc2)c1)c1cncs1` (stereo not drawn) [Compound 39]: the logP entry is “log p 4.33^[a]”. Still for that read-out and setting: for `CCc1cccc(CC)c1SCC(O)(c1cncs1)C(C)(C)C` (stereo not drawn) [Compound 56] the value was “log p 4.78^[a]”; for `CC(C)C(O)(CSc1nncn1C1CCCCC1)c1cncs1` (stereo not drawn) [Compound 31], “log p 2.04^[a]”. Same read-out and setting: as for `CCc1cccc(C)c1SCC(O)(c1cncs1)C(C)(C)C` (stereo not drawn) [Compound 55], the entry is “log p 4.41^[a]”; as for `CC(C)(C)C(O)(CSc1ccc(C(=O)NC2CC2)cc1Cl)c1cncs1` (stereo not drawn) [Compound 40], “log p 2.54^[a]”; as for `CC(=O)Nc1ccc(SCC(O)(c2cncs2)C(C)(C)C)cc1` (stereo not drawn) [Compound 66], “log p 2.13^[a]”. Still for that read-out and setting: for `CC(C)(C)C(O)(CSc1ccc(F)c(F)c1)c1cncs1` (stereo not drawn) [Compound 50] the value was “log p 3.3^[a]”; for `CSc1ccc(SCC(O)(c2cncs2)C(C)(C)C)cc1` (stereo not drawn) [Compound 51], “log p 3.59^[a]”; for `CC(C)(C)C(O)(CSc1ccc(-c2ccccc2)cc1)c1cncs1` (stereo not drawn) [Compound 44], “log p 4.39 ^[a]”. With `Cc1ccc(SCC(O)(c2cncs2)C(C)(C)C)cc1` (stereo not drawn) [Compound 37], the logP entry is “log p 3.63^[a]”. Still for that read-out and setting: for `CC(C)C(O)(CSc1nncn1-c1c(F)cccc1F)c1cncs1` (stereo not drawn) [Compound 24] the value was “log p 1.8^[a]”; for `CC(C)(C)C(O)(CSc1cccc(Cl)c1Cl)c1cncs1` (stereo not drawn) [Compound 60], “log p 3.76^[a]”. Still for that read-out and setting: as for `Cc1ccc([S+]([O-])CC(O)(c2cncs2)C(C)(C)C)c(C)c1` (stereo not drawn) [Compound 23], the entry is “log p 2.92^[a]”; as for `Cc1cc(C)cc(SCC(O)(c2cncs2)C(C)(C)C)c1` (stereo not drawn) [Compound 68], “log p 4.06^[a]”.

As for `CC(C)(C)C(O)(CSc1ccccc1Br)c1cnc(Sc2ccccc2Br)s1` (stereo not drawn) [Compound 27], the logP result was “log p 5.78^[a]”. As for `CC(C)(C)C(O)(CSc1ccc(Cl)s1)c1cncs1` (stereo not drawn) [Compound 4], the logP entry was “logP 3.68^[a]; [M]^+ = 334”. Take `CC(C)(C)C(O)(CSc1cc(Cl)c(Cl)cc1Cl)c1cncs1` (stereo not drawn) [Compound 62]: the logP result is “log p 4.41^[a]”. Turning to `CCOC(=O)c1ccc(SCC(O)(c2cncs2)C(C)(C)C)cc1` (stereo not drawn) [Compound 52], the logP entry was “log p 3.41^[a]”. The same measure, in the same setting: as for `CC(C)(C)C(O)(CSc1ccc(Cl)cc1)c1cncs1` (stereo not drawn) [Compound 17], the entry is “log p 3.64^[a]”; as for `CC(C)(C)C(O)(CSc1cc(C(F)(F)F)ccc1Cl)c1cncs1` (stereo not drawn) [Compound 43], “log p 4.02^[a]”.

For `CC(C)(C)C(O)(CSc1ccc2ccccc2c1)c1cncs1` (stereo not drawn) [Compound 35], the logP result was “log p 3.92^[a]”.

For the molecule `CCOC(=O)c1ccc(SCC(O)(c2cncs2)C(C)(C)C)c(C)c1` (stereo not drawn) [Compound 45], the logP result is “log p 3.7 ^[a]”. The same measure, in the same setting: for `CC(C)(C)C(O)(CSc1ccc(C(=O)c2ccccc2)cc1)c1cncs1` (stereo not drawn) [Compound 53] the value was “log p 3.66^[a]”; for `CC(C)(C)C(O)(CSc1ccc(F)cc1)c1cncs1` (stereo not drawn) [Compound 65], “log p 3.21^[a]”; for `Cc1ccc(SCC(O)(c2cncs2)C(C)(C)C)c(C)c1` (stereo not drawn) [Compound 28], “log p 4.02^[a]”.

For the molecule `CC(Oc1ccc(SCC(O)(c2cncs2)C(C)(C)C)cc1)C(C)(C)C` (stereo not drawn) [Compound 46], the logP entry was “log p 5.53^[a]”. On the same count and under the same terms, as for `CC(C)(C)C(O)(CSc1cc(Cl)ccc1Cl)c1cncs1` (stereo not drawn) [Compound 74], the entry is “log p 3.83^[a]”; as for `CCc1ccccc1SCC(O)(c1cncs1)C(C)(C)C` (stereo not drawn) [Compound 69], “log p 3.9^[a]”; as for `CC(C)(C)C(O)(CSc1ccc(Cl)cc1Cl)c1cncs1` (stereo not drawn) [Compound 11], “logP 3.96^[a]; [M]^+ = 361”. On the same count and under the same terms, as for `CC(C)(C)C(O)(CSc1ccccc1)c1cncs1` (stereo not drawn) [Compound 73], the entry is “log p 3.8^[a]”. The same measure, in the same setting: as for `CC(C)Oc1ccc(SCC(O)(c2cncs2)C2(C)CCCCC2)cn1` (stereo not drawn) [Compound 16], the entry is “logP 4.70^[a]; [M]^+ = 393”. `CC(C)(C)C(O)(CSc1cccc(C(F)(F)F)c1)c1cncs1` (stereo not drawn) [Compound 61]: the logP entry is “log p 3.74^[a]”.

In the case of `COc1ccc(SCC(O)(c2cncs2)C(C)(C)C)cc1` (stereo not drawn) [Compound 18], the logP entry was “log p 3.16^[a]”.

In another data set the test system is Alternaria solani. Kind of data set: Alternaria test (tomato) / protective. Type of data set: in vivo. The note with it: 500 ppm active ingredient, protective spray on young tomato plants, evaluation 7 days after inoculation; 0% = control, 100% = no infection. The method, then:
Alternaria Test (Tomato)/Protective
(§1) • Solvent: 49 parts by weight of N,N-dimethylformamide • Emulsifier: 1 part by weight of alkylaryl polyglycol ether
To produce an appropriate active ingredient formulation, 1 part by weight of active ingredient is mixed with the specified amounts of solvent and emulsifier, and the concentrate is diluted with water to the desired concentration. To test for protective activity, young tomato plants are sprayed with the active ingredient formulation at the stated application rate. One day after the treatment, the plants are inoculated with a spore suspension of Alternaria solani and are then left to stand at 100% relative humidity and 22° C. for 24 h. Subsequently, the plants are left to stand at 96% relative air humidity and a temperature of 20° C. Evaluation follows 7 days after the […]. 0% means an efficacy which corresponds to that of the control, whereas an efficacy of 100% means that no infection is observed.
`CC(C)(C)C(O)(CSc1ccc(I)cc1)c1cncs1` (stereo not drawn) [Compound 2] returned an efficacy of 86%. Same read-out and setting: for `CC(C)(C)C(O)(CSc1ccc(Cl)c(Cl)c1)c1cncs1` (stereo not drawn) [Compound 38] the value was 75%; for `CC(C)(C)C(O)(CSc1ccc(-c2ccccc2)cc1)c1cncs1` (stereo not drawn) [Compound 44], 100%. Same read-out and setting: as for `CC(C)(C)C(O)(CSc1cccc(Cl)c1Cl)c1cncs1` (stereo not drawn) [Compound 60], the figure is 94%; as for `CC1(C(O)(CSc2ccc(I)cc2)c2cncs2)CCCCC1` (stereo not drawn) [Compound 13], 99%. Same read-out and setting: as for `CC(C)(C)C(O)(CSc1ccc(Cl)cc1Cl)c1cncs1` (stereo not drawn) [Compound 11], the figure is 99%; as for `CC(C)Oc1ccc(SCC(O)(c2cncs2)C2(C)CCCCC2)cn1` (stereo not drawn) [Compound 16], 94%; as for `CC(C)(C)C(O)(CSc1ccc(Cl)cc1)Cc1cncs1` (stereo not drawn) [Compound 34], 99%.

In a further data set the test system is Sphaerotheca fuliginea. Nature of the data set: Sphaerotheca test (cucumber) / protective. Format: in vivo. The note with it: 500 ppm active ingredient, protective spray on young cucumber plants, evaluation 7 days after inoculation; 0% = control, 100% = no infection. The method, then:
Sphaerotheca Test (Cucumber)/Protective
as §1
To produce an appropriate active ingredient formulation, 1 part by weight of active ingredient is mixed with the specified amounts of solvent and emulsifier, and the concentrate is diluted with water to the desired concentration. To test for protective activity, young cucumber plants are sprayed with the formulation of active ingredient at the stated application rate. 1 day after the treatment, the plants are inoculated with a spore suspension of Sphaerotheca fuliginea. The plants are then placed in a greenhouse at 70% relative air humidity and a temperature of 23° C. Evaluation follows 7 days after the inoculation. 0% means an efficacy which corresponds to that of the control, whereas an efficacy of 100% means that no infection is observed.
`CC(C)(C)C(O)(CSc1ccc(I)cc1)c1cncs1` (stereo not drawn) [Compound 2] had an efficacy of 95%. Same read-out and setting: for `CC(C)C(O)(CSc1ccc(I)cc1)c1cncs1` (stereo not drawn) [Compound 6] the value was 80%. Same read-out and setting: for `CC(C)(C)C(O)(CSc1ccc(Cl)c(Cl)c1)c1cncs1` (stereo not drawn) [Compound 38] the value was 80% and 90%; for `CC1(C(O)(CSc2ccc(I)cc2)c2cncs2)CCCCC1` (stereo not drawn) [Compound 13], 89%. `CC(C)(C)C(O)(CSc1ccc(Cl)cc1Cl)c1cncs1` (stereo not drawn) [Compound 11] gave an efficacy of 80%.
